# Source: publication PMC8466420, “Inflammatory and Cytotoxic Activities of Abietane Terpenoids from Nepeta bracteata Benth” (Molecules, 2021)
# Columns and labels:
# Type in all cases: cell-based
# [1] = test system: nitric oxide (NO) production in lipopolysaccharide (LPS)-stimulated RAW 264.7 cells; test: Anti-inflammation assay: inhibition of NO production in LPS-stimulated RAW 264.7 macrophages; settings: means ± SD of triplicate experiments
# Experimental: The anti-inflammatory activity of the isolated compounds was evaluated in lipopolysaccharide-stimulated RAW 264.7 macrophages using the […]. The RAW 264.7 macrophages were seeded in 96-well plates at a density of 1 × 10^4 cells per well for 24 h, followed by treatment with different extracts of identical purity for another 24 h. The compounds were dissolved in dimethyl sulfoxide (DMSO) and diluted appropriately just before cell treatments. Cells were incubated with the extract at indicated concentrations, with DMSO not exceeding 0.1% in all experiments. The cells were cultured in DMEM with 10% FBS and antibiotics (100 U/mL penicillin and 100 µg/mL streptomycin) at 37 °C with 5% CO2. […].
# RAW 264.7 macrophages = test: RAW 264.7 macrophage viability test (MTT); settings: compounds at 50 μM; for viability at 50 µM: Mus musculus, RAW264.7, 24 h, read-out: Cell Survival Rate (%) RAW 264.7 Macrophages
# Experimental: The MTT colorimetric method was used to detect the effect of compounds 1–10 on the viability of RAW 264.7 macrophages. The RAW 264. 7 macrophages in the logarithmic growth phase were digested with trypsin to prepare a single-cell suspension, which was seeded in a 96-well plate at a density of 1 × 10^4 cells per well and cultured in a 5% CO2 incubator for 24 h at 37 °C, before discarding the supernatant. The blank control group was cultured with 10% FBS-containing DMEM, and the drug group was treated with aqueous solutions of compounds 1–10, with six replicate wells for each concentration. Incubation was continued in 5% CO2 at 37 °C. After 24 h of incubation, 10 μL of 5 mg/mL MTT was added to each well. The culture solution was removed after culturing for 4 h. Then, 100 μL of DMSO was added to each well, before shaking for 10 min to achieve complete dissolution. The optical density (OD) was measured at 492 nm using a microplate reader to calculate cell viability.
# HCT-8 cells = test: Cytotoxicity test against HCT-8 cells (MTT); settings: 24 h, means ± SD (n = 3), read-out: IC50 (μM) HCT-8 (cytotoxic activity)
# Experimental: (§1) The cytotoxic activities of compounds 1–10 against HCT-8 cells were tested using the MTT colorimetric method. HCT-8 cells were cultivated on DMEM medium at 37 °C and 5% CO2. After diluting the DMEM medium, cells were seeded into 96-well sterile microplates (6 × 10^4 cells/well) and cultured with a series of various concentrations of tested compounds or adriamycin (positive control) for 24 h at 37 °C. After incubation, all compounds were tested at five concentrations (10−100 μM) for 1 h. Following this, the supernatant was removed, and all components were dissolved in 100% DMSO, at such an amount that there was a final DMSO concentration of 0.1% added to each well. The absorbance was measured using a microplate reader at a wavelength of 570 nm. […] The cell growth assay was repeated three times, and the IC50 values were calculated using Microsoft Excel software.
# [2] = Cytotoxicity test against HCT-8 cells (MTT); settings: human, means ± SD (n = 3), read-out: IC50 (μM) HCT-8 (cytotoxic activity)
# Experimental: as §1
# [3] = Mus musculus, RAW264.7, 24 h treatment
Compound,"IC50 [1, 3]",IC50 ([1]; 24 h treatment),Cell Survival Rate (%) RAW 264.7 Macrophages (RAW 264.7 macrophages; 24 h),IC50 (HCT-8 cells),IC50 at 24 h [2],viability at 50 µM (RAW 264.7 macrophages)
1-phenanthrenecarboxylic acid [Compound 8],–,37.5 ± 0.92 µM,99.12 ± 0.28%,> 50 µM,–,–
"COc1cccc2c1C(=O)c1c(O)c3c(c(O)c1C2=O)C[C@@](O)(C(=O)CO)C[C@@H]3O[C@H]1C[C@H](N)[C@H](O)[C@H](C)O1 [Adriamycin, reference compound]",–,–,–,–,1.78 ± 0.14 µM,–
"CC(=O)Oc1ccccc1C(=O)O [Aspirin, reference compound]",15.9 ± 0.38 µM,–,–,–,–,–
"CC(C)c1ccc2c(c1)[C@@H](O)C[C@H]1[C@@](C)(C=O)CCC[C@]21C [Compound 2, nepetabrate B]",19.2 ± 1.25 µM,–,–,–,36.3 ± 1.1 µM,88.26 ± 0.32%
"CC1=C(CO)[C@@H]2C[C@H](O)c3cc(C(C)C)ccc3[C@@]2(C)CC1 [Compound 3, nepetabrate C]",22.3 ± 1.26 µM,–,–,–,> 50 µM,99.84 ± 0.21%
"C=C1[C@@H]2C[C@H](O)c3cc(C(C)C)ccc3[C@@]2(C)CC[C@@]1(C)O [Compound 4, nepetabrate D]",18.8 ± 0.75 µM,–,–,–,41.4 ± 0.91 µM,92.21 ± 0.19%
"CC(C)(O)c1ccc2c(c1)CC[C@H]1[C@@](C)(C(=O)O)CCC[C@]21C [Compound 6, angustanoic acid F]",36.2 ± 1.21 µM,–,–,–,> 50 µM,99.89 ± 0.13%
"CC(C)c1ccc2c(c1)CC[C@@H]1[C@](C)(CCC[C@]1(C)C(=O)O)O2 [Compound 10, jiadifenoic acid K]",46.3 ± 1.02 µM,–,–,–,> 50 µM,98.75 ± 0.2%

# The remaining compounds from weak to strong by IC50 [1, 3], led by results:
"IC50 [1, 3]",Compound,IC50 ([1]; 24 h treatment),Cell Survival Rate (%) RAW 264.7 Macrophages (RAW 264.7 macrophages; 24 h),IC50 (HCT-8 cells),IC50 at 24 h [2],viability at 50 µM (RAW 264.7 macrophages)
42.3 ± 0.56 µM,"CC(=O)c1ccc2c(c1)CC[C@H]1[C@@](C)(C(=O)O)CCC[C@]21C [Compound 9, angustanoic acid G]",–,–,–,> 50 µM,98.26 ± 0.18%
38.2 ± 1.15 µM,"CC(=O)O[C@H]1CCC(C)(C)[C@@H]2CCc3cc(C(C)C)ccc3[C@@]12CO [Compound 1, nepetabrate A]",–,–,–,> 50 µM,97.93 ± 0.26%
37.1 ± 0.81 µM,"CC(C)c1ccc2c(c1)[C@@H](O)C[C@H]1[C@@](C)(C(=O)O)CCC[C@]21C [Compound 7, 7a-hydroxycallitrisic acid]",–,–,–,> 50 µM,98.75 ± 0.45%
18 ± 1.13 µM,"CC1CC(=O)OCCNC1=O (centres unmarked) [Compound 5, 6-methyl-1,4-oxazocane-5,8-dione]",–,–,–,> 50 µM,99.21 ± 0.15%
